Experimental data taken from ChEMBL document CHEMBL3638734, “5-HT3 receptor modulators, methods of making, and use thereof” (2013).
pKi: −log10 of the molar value.

Biological target: T1, 5-hydroxytryptamine receptor 3A (Homo sapiens, UniProt P46098)
T1 sequence (P46098 whole entry): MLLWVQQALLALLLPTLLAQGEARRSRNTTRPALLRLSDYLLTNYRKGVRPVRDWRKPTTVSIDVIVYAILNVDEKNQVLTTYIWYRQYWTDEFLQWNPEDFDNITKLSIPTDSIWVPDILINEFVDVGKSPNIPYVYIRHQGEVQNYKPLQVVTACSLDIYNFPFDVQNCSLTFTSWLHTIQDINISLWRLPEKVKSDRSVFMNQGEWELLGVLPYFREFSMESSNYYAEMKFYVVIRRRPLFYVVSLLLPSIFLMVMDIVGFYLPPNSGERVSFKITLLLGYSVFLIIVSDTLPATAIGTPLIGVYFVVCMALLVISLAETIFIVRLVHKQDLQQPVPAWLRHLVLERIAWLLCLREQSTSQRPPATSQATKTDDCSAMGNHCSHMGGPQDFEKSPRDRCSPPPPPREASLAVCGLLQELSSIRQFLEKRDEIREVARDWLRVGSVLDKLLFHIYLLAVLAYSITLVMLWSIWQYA
Assay: Radioligand Binding Assay: The relative affinity of the various compounds for the human 5-HT3 receptor was measured in a radioligand binding assay, using a scintillation proximity assay (SPA) format.

O=C1c2cccc3[nH]nc(c23)CCN1[C@H]1CN2CCC1CC2
pKi: 6.97

CCn1nc2c3c(cccc31)C(=O)N([C@@H]1CN3CCC1CC3)CC2
pKi: 9.00

CC(C)n1nc2c3c(cccc31)C(=O)N([C@@H]1CN3CCC1CC3)CC2
pKi: 8.70

O=C1c2cccc3c2c(nn3Cc2ccccc2)CCN1[C@@H]1CN2CCC1CC2
pKi: 8.70

O=C1c2cccc3[nH]nc(c23)CCN1[C@@H]1CN2CCC1CC2
pKi: 8.40

Cn1nc2c3c(cccc31)C(=O)N([C@@H]1CN3CCC1CC3)CC2
pKi: 8.70

O=C1c2cccc3c2c(cn3S(=O)(=O)c2ccccc2)CCN1[C@@H]1CN2CCC1CC2
pKi: 7.60
